Where two headings read alike, the source gives them in different places.
Key:
[1] = target: T1, functional uptake of norepinephrine (NE) (Rattus norvegicus, UniProt Q63380); assay: Inhibition of functional uptake of norepinephrine (NE) into synaptosomes from rat hypothalamus; type: biochemical
T1 construct: synaptosomes prepared from rat whole brain, hypothalamus, or corpora striata, respectively; from tissue; host or cells: rat hypothalamus synaptosomes
Experimental: (§1) The 2-hydroxy derivatives of the sibutramine metabolites N-desmethyl and N-didesmethylsibutramine (DMS and DDMS, respectively) were tested for their inhibition of functional uptake of serotonin (5-HT), norepinephrine (NE), or dopamine (DA), into synaptosomes prepared from rat whole brain, hypothalamus, or corpora striata, respectively, using methods known in the art. In addition, binding was determined at the nonselective muscarinic receptor and the […] from rat cerebral cortex and rat adipose tissue, respectively.
(§2) IC50 values (concentration inhibiting control activity by 50 percent) were then determined by nonlinear regression analysis of the inhibition curves and tabulated below.

[2] = target: T2, functional uptake of serotonin (5-HT) (Rattus norvegicus, UniProt P31652); assay: Inhibition of functional uptake of serotonin (5-HT) into synaptosomes from rat whole brain; type: biochemical
T2 construct: synaptosomes prepared from rat whole brain, hypothalamus, or corpora striata, respectively; from tissue; host or cells: rat whole brain synaptosomes
T2 sequence (P31652 whole entry): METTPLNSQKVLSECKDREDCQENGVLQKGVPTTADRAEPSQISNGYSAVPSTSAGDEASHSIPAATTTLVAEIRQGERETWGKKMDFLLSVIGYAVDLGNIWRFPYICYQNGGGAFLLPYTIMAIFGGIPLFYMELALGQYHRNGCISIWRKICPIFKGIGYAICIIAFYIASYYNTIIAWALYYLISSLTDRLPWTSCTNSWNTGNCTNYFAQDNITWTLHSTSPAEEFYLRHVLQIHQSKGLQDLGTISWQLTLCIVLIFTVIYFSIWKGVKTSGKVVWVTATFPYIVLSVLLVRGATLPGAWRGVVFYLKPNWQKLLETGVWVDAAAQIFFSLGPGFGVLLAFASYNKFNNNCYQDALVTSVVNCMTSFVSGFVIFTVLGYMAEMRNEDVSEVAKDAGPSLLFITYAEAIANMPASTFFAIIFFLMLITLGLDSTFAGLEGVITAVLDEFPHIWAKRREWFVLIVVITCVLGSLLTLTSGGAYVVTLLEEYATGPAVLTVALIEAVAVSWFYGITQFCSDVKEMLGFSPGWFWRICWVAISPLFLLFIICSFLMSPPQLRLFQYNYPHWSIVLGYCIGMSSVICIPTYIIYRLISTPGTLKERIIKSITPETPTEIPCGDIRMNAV
Experimental: as §1, §2

[3] = target: T3, functional uptake of dopamine (DA) (Rattus norvegicus, UniProt P23977); assay: Inhibition of functional uptake of dopamine (DA) into synaptosomes from rat corpora striata; type: biochemical
T3 construct: synaptosomes prepared from rat whole brain, hypothalamus, or corpora striata, respectively; from tissue; host or cells: rat corpora striata synaptosomes
T3 sequence (P23977 whole entry): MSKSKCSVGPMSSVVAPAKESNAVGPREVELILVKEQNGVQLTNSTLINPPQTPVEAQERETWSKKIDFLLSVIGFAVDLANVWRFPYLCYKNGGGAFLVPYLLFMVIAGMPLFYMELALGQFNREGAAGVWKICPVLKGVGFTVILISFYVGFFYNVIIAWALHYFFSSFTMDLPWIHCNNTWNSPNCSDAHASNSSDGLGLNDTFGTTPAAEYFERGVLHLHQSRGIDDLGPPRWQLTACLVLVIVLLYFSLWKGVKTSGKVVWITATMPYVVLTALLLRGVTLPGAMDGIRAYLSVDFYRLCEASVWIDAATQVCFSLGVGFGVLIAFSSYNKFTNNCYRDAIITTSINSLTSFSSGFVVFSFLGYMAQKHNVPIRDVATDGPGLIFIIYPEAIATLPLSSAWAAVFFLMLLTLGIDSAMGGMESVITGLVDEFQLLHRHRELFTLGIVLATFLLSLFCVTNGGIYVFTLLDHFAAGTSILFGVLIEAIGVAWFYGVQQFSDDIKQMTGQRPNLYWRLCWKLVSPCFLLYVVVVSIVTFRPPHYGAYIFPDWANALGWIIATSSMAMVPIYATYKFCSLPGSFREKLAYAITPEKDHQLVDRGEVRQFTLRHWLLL
Experimental: as §1, §2

[4] = target: nonselective muscarinic receptor; assay: Binding at the nonselective muscarinic receptor from rat cerebral cortex
Experimental: as §1, §2

[5] = synaptosomes from rat hypothalamus, read-out: IC50, NE functional uptake

T1 sequence (Q63380 1-617): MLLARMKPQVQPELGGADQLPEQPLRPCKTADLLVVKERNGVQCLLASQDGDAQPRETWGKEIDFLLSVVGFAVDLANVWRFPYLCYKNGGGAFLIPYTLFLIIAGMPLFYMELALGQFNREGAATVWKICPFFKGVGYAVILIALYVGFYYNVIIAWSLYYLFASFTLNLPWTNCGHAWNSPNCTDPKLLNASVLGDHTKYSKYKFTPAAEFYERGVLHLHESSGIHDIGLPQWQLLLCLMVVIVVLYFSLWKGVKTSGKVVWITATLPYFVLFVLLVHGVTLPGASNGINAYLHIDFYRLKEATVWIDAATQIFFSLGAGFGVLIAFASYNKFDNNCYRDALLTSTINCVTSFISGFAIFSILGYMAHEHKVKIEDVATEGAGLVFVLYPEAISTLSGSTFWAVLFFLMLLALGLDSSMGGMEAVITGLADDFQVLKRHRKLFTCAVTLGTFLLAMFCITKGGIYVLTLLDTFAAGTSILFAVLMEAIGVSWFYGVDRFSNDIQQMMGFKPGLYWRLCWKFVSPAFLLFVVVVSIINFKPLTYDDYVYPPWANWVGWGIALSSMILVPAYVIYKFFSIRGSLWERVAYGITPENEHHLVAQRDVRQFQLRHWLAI

SMILES	IC50 [1, 5] [nM]	IC50 [2] [nM]	IC50 [3] [nM]	IC50 [1] [nM]	IC50 [4] [nM]
CC(C)(O)C[C@@H](N)C1(c2ccc(Cl)cc2)CCC1 [2-(R)-OH-DDMS, (R)-(−)-4-amino-[1-(4-chlorophenyl)cyclobutyl]-2-methyl-butan-2-ol]	6.2	7.2	18		
CN[C@H](CC(C)(C)O)C1(c2ccc(Cl)cc2)CCC1 [2-(R)-OH-DMS, (R)-(+)-4-[1-(4-Chloro-phenyl)-cyclobutyl]-2-methyl-4-methylamino-butan-2-ol]		22	48	23	8970
CC(C)(O)C[C@H](N)C1(c2ccc(Cl)cc2)CCC1 [2-(S)-OH-DDMS, (S)-(+)-4-amino-[1-(4-chlorophenyl)cyclobutyl]-2-methyl-butan-2-ol]	71	670	59		
CN[C@@H](CC(C)(C)O)C1(c2ccc(Cl)cc2)CCC1 [2-(S)-OH-DMS]		5400	370	310	4480
CN1[C@@H]2CC[C@H]1C[C@@H](OC(=O)C(CO)c1ccccc1)C2 (stereo partly drawn) [Atropine, reference compound]					0.38

Source: patent publication US20030087963A1, “Methods of preparing and using 2-hydroxy derivatives of sibutramine and its metabolites” (priority 2001, published 2003)
